These results are taken from patent US6677350B1, “Beta-fluoroethyl thiourea compounds and use” (priority 1999, dated 2004).

Values after ≈ are worked out from the molar mass of the structure shown. Where two headings read alike, the source gives them in different places.

One data set deals with Mtb. In words: Actual minimum inhibitory concentration (MIC), lowest concentration inhibiting 99% of the inoculum. The data set is classed as cell-based, Mycobacterium tuberculosis. The note with it: read-out: minimum inhibitory concentration (MIC).
Data set [1] has as its system M. tuberculosis H37Rv (ATCC 27294). Description: In vitro anti-tuberculosis screening, BACTEC 460 radiometric system, percent inhibition of growth. As to conditions: for inhibition at 12.5 µg/mL: Mycobacterium tuberculosis. The data set is classed as cell-based, Mycobacterium tuberculosis.
The mark [2] stands for this setting: Mycobacterium tuberculosis, lowest concentration inhibiting 99% of the inoculum.
Setting [3] is: Mtb H37Rv, 12.5 μg/mL, BACTEC 12B medium, read-out: Activity % inhibition at 12.5 μg/mL (chalcones).
The mark [4] stands for this setting: Mtb H37Rv, drug concentration 12.5 μg/mL, read-out: inhibition of the growth of Mtb.
Setting [5] is: read-out: Activity % inhibition at 12.5 μg/mL (chalcone-like compounds), Mtb H37Rv, 12.5 μg/mL, BACTEC 12B medium.
[6] abbreviates: read-out: inhibition of the growth of Mtb, Mtb H37Rv, drug concentration 12.5 μg/mL.
Setting [7] is: Mtb H37Rv, 12.5 μg/mL, BACTEC 12B medium.
[8] abbreviates: Mtb H37Rv, drug concentration 12.5 μg/mL.

`O=C(/C=C/c1cccc(I)c1)c1ccccc1O` [Compound 40, 3-Iodo-2′-hydroxychalcone]: the MIC in the data set with Mtb (setting [2]) is more than 35.7 µM. The inhibition at 12.5 µg/mL in data set [1] (setting [3]) and in data set [1] (setting [4]) was 92% throughout.
On to `O=C(C=Cc1ccccc1)c1ccco1` [Compound 56, 1-(Furan-2-yl)-3-phenyl-2-propen-1-one], for which the melting point – broadly, the temperature, or range, at which the solid turns liquid – was 94 to 95 °C. In addition, the MIC in the data set with Mtb (Mycobacterium tuberculosis) came out at 31.5 µM (≈ 6.24 µg/mL). Further, the inhibition at 12.5 µg/mL in data set [1] (setting [5]) turned out to be 96%. Besides, in data set [1] (setting [6]), the inhibition at 12.5 µg/mL was 96%.
`COc1ccc(-c2cc(=O)c3c(OC)c(-c4c(OC)cc5oc(-c6ccc(OC)cc6)cc(=O)c5c4OC)c(OC)cc3o2)cc1` [Compound 151, 6,6″-Biapigenin hexamethylether]: the melting point lay in the range of 303 to 304 °C. Moreover, the MIC with Mtb (setting [2]) was more than 20.1 µM. In addition, in data set [1] (Mtb H37Rv, 12.5 μg/mL, BACTEC 12B medium, read-out: Activity % Inhibition at 12.5 μg/mL (biflavonoids)), the inhibition at 12.5 µg/mL came out at 96%. Moreover, in data set [1] (setting [4]), the inhibition at 12.5 µg/mL is 96%.
In turn, `O=C(C=Cc1cccnc1)c1ccc(F)cc1` [Compound 53, 1-(4-Fluorophenyl)-3-(pyridin-3-yl)-2-propen-1-one] returned a melting point of 126 to 127 °C. In addition, the MIC in the data set with Mtb (Mycobacterium tuberculosis) stood at 6.8 µM (≈ 1.55 µg/mL). In addition, the inhibition at 12.5 µg/mL in data set [1] (setting [5]) was found to be 98%. In data set [1] (setting [6]), the inhibition at 12.5 µg/mL came out at 98%.
For the molecule “1-(5-pyridin-2-yl)-3-(phenanthen-9-yl)-2-propen-1-one [Compound 55]”, in the data set on Mtb (lowest concentration inhibiting 99% of the inoculum), the MIC was found to be 20.2 µM. In addition, the “Activity % inhibition at 12.5 μg/mL (chalcone-like compounds)” value in data set [1] (setting [7]) stood at 96%.
In turn, `O=C(C=Cc1cc2ccccc2c2ccccc12)c1cccc(O)c1` [Compound 54, 1-(3-Hydroxyphenyl)-3-phenanthren-9-yl-2-propen-1-one] registered a melting point of 212 to 213 °C. Moreover, in the data set with Mtb (Mycobacterium tuberculosis), the MIC was determined as 19.2 µM (≈ 6.23 µg/mL). In data set [1] (setting [5]), the inhibition at 12.5 µg/mL came to 97%. In addition, the inhibition at 12.5 µg/mL in data set [1] (setting [6]) stood at 97%.
`O=C(/C=C/c1cccc(Cl)c1)c1ccccc1O` [Compound 24, 3-Chloro-2′-hydroxychalcone]: the melting point fell in the range of 108 to 108.5 °C. Also, the MIC with Mtb (setting [2]) amounted to 48.3 µM (≈ 12.5 µg/mL). In data set [1] (setting [3]), the inhibition at 12.5 µg/mL worked out at 90%. Also, the inhibition at 12.5 µg/mL in data set [1] (setting [4]) worked out at 90%.
`COc1ccc(Br)c2c1C(=O)CC(c1ccccc1)O2` (stereo not drawn) [Compound 133, 5-Methoxy-8-bromo-flavanone] yielded a melting point of 134 to 165 °C. The inhibition at 12.5 µg/mL in data set [1] (Mtb H37Rv, 12.5 μg/mL, BACTEC 12B medium, read-out: Activity % Inhibition at 12.5 μg/mL (flavanones)) was determined as 87%. The inhibition at 12.5 µg/mL in data set [1] (setting [4]) is 87%.
As for `CC(=O)OC[C@H]1O[C@@H](Oc2cc(OC(C)=O)c3c(=O)cc(-c4ccc(OC(C)=O)cc4)oc3c2C2C(=O)c3c(OC(C)=O)cc(OC(C)=O)cc3OC2c2ccc(OC(C)=O)cc2)[C@H](OC(C)=O)[C@@H](OC(C)=O)[C@@H]1OC(C)=O` (stereo partly drawn) [Compound 177, Spicataside acetate], the “Activity % Inhibition at 12.5 μg/mL (biflavonoids)” value in data set [1] (setting [7]) worked out at 0%.
Take `O=c1c(O)c(-c2ccccc2)oc2ccc(Br)cc12` [Compound 82]: the “Activity % Inhibition at 12.5 μg/mL (flavones)” value in data set [1] (setting [7]) is on record as 58%.
For the molecule `COc1ccc(-c2oc3ccc(Cl)cc3c(=O)c2O)cc1` [Compound 87], the “anti-TB activity in words” value in data set [1] (Mtb H37Rv, 12.5 μg/mL) is “did not change the activity”. The “Activity % Inhibition at 12.5 μg/mL (flavones)” value in data set [1] (setting [7]) is 48%.
As to `COc1ccc(C=CC(=O)c2ccc(Cl)cc2O)cc1` [Compound 28], in data set [1] (setting [7]), the “Activity % inhibition at 12.5 μg/mL (chalcones)” value stood at 57%. Further, in data set [1] (setting [8]), the “inhibition of the growth of Mtb” value is on record as 57%.
In the case of `COc1ccc(/C=C/C(=O)c2cc(Cl)ccc2O)cc1` [Compound 29], in data set [1] (setting [7]), the “Activity % inhibition at 12.5 μg/mL (chalcones)” value is 20%. Moreover, the “inhibition of the growth of Mtb” value in data set [1] (setting [8]) was 20%.
